Source: patent US11180462B2, “Microbiocidal oxadiazole derivatives” (SYNGENTA PARTICIPATIONS AG, priority 2015, dated 2021)

Assays:
[1] = system: Puccinia recondita f. Sp. Tritici; assay: Fungicidal activity against Puccinia recondita f. sp. tritici / wheat / leaf disc preventative (brown rust); format: in vivo; conditions: foliar, 200 ppm in the applied formulation, wheat leaf segments, preventative, compared to untreated control leaf disks, read-out: disease control
In short: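 Percent disease control relative to untreated check segments is scored once disease develops, 7 to 9 days after application. Wheat cv. Kanzler segments receive compound spray (200 ppm in formulation) one day before spore inoculation, then sit at 19° C. and 75% rh under 12 h light/12 h dark.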

[2] = system: Puccinia recondita f. Sp. Tritici; assay: Fungicidal activity against Puccinia recondita f. sp. tritici / wheat / leaf disc curative (brown rust); format: in vivo; conditions: foliar, 24 h, 200 ppm in the applied formulation, wheat leaf segments, curative (applied 1 day after inoculation), compared to untreated control leaf disks, read-out: disease control
In short: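 Wheat cv. Kanzler leaf segments on agar, inoculated with rust spore suspension, kept dark at 19° C and 75% RH; formulated compound sprayed 1 day post-inoculation. Incubated 19° C, 75% RH, 12 h light/12 h dark; percent disease control vs untreated scored 6 to 8 days after application.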

[3] = system: Glomerella lagenarium (Colletotrichum lagenarium); assay: Fungicidal activity against Glomerella lagenarium (Colletotrichum lagenarium) liquid culture / cucumber / preventative (anthracnose); format: cell-based; conditions: Colletotrichum orbiculare; 20 ppm in the applied formulation; liquid culture (PDB), growth inhibition measured photometrically after 3 to 4 days; compared to untreated control; read-out: disease control
In short: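 Percent activity against the untreated check was derived from photometric growth measurements made 2 to 7 days after conidia in potato dextrose broth were combined with compound at 20 ppm. Cultures were kept dark at 24 °C and 96% humidity.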

CCCN(C)C(=O)N(C)Cc1ccc(-c2noc(C(F)(F)F)n2)cc1 [Compound 3.75, 1,3-dimethyl-1-propyl-3-[[4-[5-(trifluoromethyl)-1,2,4-oxadiazol-3-yl]phenyl]methyl]urea]
≥ 80%: pest or weed control at 200 ppm [1] | pest or weed control at 200 ppm [2] | inhibition of growth at 20 ppm [3]

CCOC(=O)CN(C)C(=O)N(CC)Cc1ccc(-c2noc(C(F)(F)F)n2)cc1 [Compound 3.92, ethyl 2-[[ethyl-[[4-[5-(trifluoromethyl)-1,2,4-oxadiazol-3-yl]phenyl]methyl]-carbamoyl]-methyl-amino]acetate]
≥ 80%: pest or weed control at 200 ppm [1] | pest or weed control at 200 ppm [2] | inhibition of growth at 20 ppm [3]

CCN(CC1CC1)C(=O)N(C)Cc1ccc(-c2noc(C(F)(F)F)n2)cc1 [Compound 3.81, 1-(cyclopropylmethyl)-1-ethyl-3-methyl-3-[[4-[5-(trifluoromethyl)-1,2,4-oxadiazol-3-yl]phenyl]methyl]urea]
≥ 80%: pest or weed control at 200 ppm [1] | pest or weed control at 200 ppm [2] | inhibition of growth at 20 ppm [3]

COCCN(Cc1ccc(-c2noc(C(F)(F)F)n2)cc1)C(=O)COC(C)=O [Compound 1.348, [2-[2-methoxyethyl-[[4-[5-(trifluoromethyl)-1,2,4-oxadiazol-3-yl]phenyl]methyl]-amino]-2-oxo-ethyl] acetate]
≥ 80%: pest or weed control at 200 ppm [1] | pest or weed control at 200 ppm [2] | inhibition of growth at 20 ppm [3]

O=C(C1CSC1)N(Cc1ccc(-c2noc(C(F)(F)F)n2)cc1)CC1CCCO1 (stereo not drawn) [Compound 1.421, N-(tetrahydrofuran-2-ylmethyl)-N-[[4-[5-(trifluoromethyl)-1,2,4-oxadiazol-3-yl]phenyl]methyl]-thietane-3-carboxamide]
≥ 80%: pest or weed control at 200 ppm [1] | pest or weed control at 200 ppm [2] | inhibition of growth at 20 ppm [3]

CCCCC(=O)N(CCOC)Cc1ccc(-c2noc(C(F)(F)F)n2)cc1 [Compound 1.366, N-(2-methoxyethyl)-N-[[4-[5-(trifluoromethyl)-1,2,4-oxadiazol-3-yl]phenyl]methyl]-pentanamide]
≥ 80%: pest or weed control at 200 ppm [1] | pest or weed control at 200 ppm [2] | inhibition of growth at 20 ppm [3]

CON(Cc1ccc(-c2noc(C(F)(F)F)n2)cc1)C(=O)C1CC1c1ccccc1 (stereo not drawn) [Compound 1.25, N-methoxy-2-phenyl-N-[[4-[5-(trifluoromethyl)-1,2,4-oxadiazol-3-yl]phenyl]methyl]-cyclopropane-carboxamide]
≥ 80%: pest or weed control at 200 ppm [1] | pest or weed control at 200 ppm [2] | inhibition of growth at 20 ppm [3]

CC#CC(=O)N(CCOC)Cc1ccc(-c2noc(C(F)(F)F)n2)cc1 [Compound 1.323, N-(2-methoxyethyl)-N-[[4-[5-(trifluoromethyl)-1,2,4-oxadiazol-3-yl]phenyl]methyl]but-2-yaamide]
≥ 80%: pest or weed control at 200 ppm [1] | pest or weed control at 200 ppm [2] | inhibition of growth at 20 ppm [3]

C=C(C)C(=O)N(Cc1ccc(-c2noc(C(F)(F)F)n2)cc1)CC1CCCO1 (stereo not drawn) [Compound 1.433, 2-methyl-N-(tetrahydrofuran-2-ylmethyl)-N-[[4-[5-(trifluoromethyl)-1,2,4-oxadiazol-3-yl]phenyl]methyl]-prop-2-enamide]
≥ 80%: pest or weed control at 200 ppm [1] | pest or weed control at 200 ppm [2] | inhibition of growth at 20 ppm [3]

O=C(C1OCCO1)N(Cc1ccc(-c2noc(C(F)(F)F)n2)cc1)Cc1ccco1 [Compound 1.473, N-(2-furylmethyl)-N-[[4-[5-(trifluoromethyl)-1,2,4-oxadiazol-3-yl]phenyl]methyl]-1,3-dioxolane-2-carboxamide]
≥ 80%: pest or weed control at 200 ppm [1] | pest or weed control at 200 ppm [2] | inhibition of growth at 20 ppm [3]

C=CCN(Cc1ccc(-c2noc(C(F)(F)F)n2)cc1)C(=O)CNC(C)=O [Compound 1.481, 2-acetamido-N-allyl-N-[[4-[5-(trifluoromethyl)-1,2,4-oxadiazol-3-yl]phenyl]methyl]-acetamide]
≥ 80%: pest or weed control at 200 ppm [1] | pest or weed control at 200 ppm [2] | inhibition of growth at 20 ppm [3]

CC#CC(=O)N(OC)C(C)c1ccc(-c2noc(C(F)(F)F)n2)cc1 (stereo not drawn) [Compound 1.248, N-methoxy-N-[1-[4-[5-(trifluoromethyl)-1,2,4-oxadiazol-3-yl]phenyl]ethyl]but-2-ynamide]
≥ 80%: pest or weed control at 200 ppm [1] | pest or weed control at 200 ppm [2] | inhibition of growth at 20 ppm [3]

CCC(C)N(Cc1ccc(-c2noc(C(F)(F)F)n2)cc1)C(=O)C1(C)CC1 (stereo not drawn) [Compound 1.388, 1-methyl-N-sec-butyl-N-[[4-[5-(trifluoromethyl)-1,2,4-oxadiazol-3-yl]phenyl]methyl]-cyclopropane-carboxamide]
≥ 80%: pest or weed control at 200 ppm [1] | pest or weed control at 200 ppm [2] | inhibition of growth at 20 ppm [3]

CC(=O)N(Cc1ccc(-c2noc(C(F)(F)F)n2)cc1)CC1CCCO1 (stereo not drawn) [Compound 1.451, N-(tetrahydrofuran-2-ylmethyl)-N-[[4-[5-(trifluoromethyl)-1,2,4-oxadiazol-3-yl]phenyl]methyl]-acetate]
≥ 80%: pest or weed control at 200 ppm [1] | pest or weed control at 200 ppm [2] | inhibition of growth at 20 ppm [3]

CON(Cc1ccc(-c2noc(C(F)(F)F)n2)cc1)C(=O)OCCCCl [Compound 2.16, 3-chloropropyl N-methoxy-N-[[4-[5-(trifluoromethyl)-1,2,4-oxadiazol-3-yl]phenyl]methyl]-carbamate]
≥ 80%: pest or weed control at 200 ppm [1] | pest or weed control at 200 ppm [2] | inhibition of growth at 20 ppm [3]

COCCN(Cc1ccc(-c2noc(C(F)(F)F)n2)cc1)C(=O)C1=CCCC1 [Compound 1.333, N-(2-methoxyethyl)-N-[[4-[5-(trifluoromethyl)-1,2,4-oxadiazol-3-yl]phenyl]methyl]-cyclopentene-1-carboxamide]
≥ 80%: pest or weed control at 200 ppm [1] | pest or weed control at 200 ppm [2] | inhibition of growth at 20 ppm [3]

COCCN(Cc1ccc(-c2noc(C(F)(F)F)n2)cc1)C(=O)CC(C)C [Compound 1.336, N-(2-methoxyethyl)-3-methyl-N-[[4-[5-(trifluoromethyl)-1,2,4-oxadiazol-3-yl]phenyl]methyl]-butanamide]
≥ 80%: pest or weed control at 200 ppm [1] | pest or weed control at 200 ppm [2] | inhibition of growth at 20 ppm [3]

O=C(CC(F)(F)F)N(Cc1ccc(-c2noc(C(F)(F)F)n2)cc1)CC1CCCO1 (stereo not drawn) [Compound 1.448, 3,3,3-trifluoro-N-(tetrahydrofuran-2-ylmethyl)-N-[[4-[5-(trifluoromethyl)-1,2,4-oxadiazol-3-yl]phenyl]methyl]-propanamide]
≥ 80%: pest or weed control at 200 ppm [1] | pest or weed control at 200 ppm [2] | inhibition of growth at 20 ppm [3]

CN(Cc1ccc(-c2noc(C(F)(F)F)n2)cc1)C(=O)N(C)C1CC1 [Compound 3.72, 1-cyclopropyl-1,3-dimethyl-3-[[4-[5-(trifluoromethyl)-1,2,4-oxadiazol-3-yl]phenyl]methyl]urea]
≥ 80%: pest or weed control at 200 ppm [1] | pest or weed control at 200 ppm [2] | inhibition of growth at 20 ppm [3]

COCC1(N(C)C(=O)N(C)Cc2ccc(-c3noc(C(F)(F)F)n3)cc2)CC1 [Compound 3.76, 1-[1-(methoxymethyl)-cyclopropyl]-1,3-dimethyl-3-[[4-[5-(trifluoromethyl)-1,2,4-oxadiazol-3-yl]phenyl]methyl]urea]
≥ 80%: pest or weed control at 200 ppm [1] | pest or weed control at 200 ppm [2] | inhibition of growth at 20 ppm [3]

CCN(Cc1ccc(-c2noc(C(F)(F)F)n2)cc1)C(=O)N(C)C1CC1 [Compound 3.90, 1-cyclopropyl-3-ethyl-1-methyl-3-[[4-[5-(trifluoromethyl)-1,2,4-oxadiazol-3-yl]phenyl]methyl]urea]
≥ 80%: pest or weed control at 200 ppm [1] | pest or weed control at 200 ppm [2] | inhibition of growth at 20 ppm [3]

O=C(C1CC1)N(Cc1ccc(-c2noc(C(F)(F)F)n2)cc1)CC1CCCO1 (stereo not drawn) [Compound 1.450, N-(tetrahydrofuran-2-ylmethyl)-N-[[4-[5-(trifluoromethyl)-1,2,4-oxadiazol-3-yl]phenyl]methyl]-cyclopropane-carboxamide]
≥ 80%: pest or weed control at 200 ppm [1] | pest or weed control at 200 ppm [2] | inhibition of growth at 20 ppm [3]

CC1(C(=O)N(Cc2ccc(-c3noc(C(F)(F)F)n3)cc2)CC2CCCO2)CC1 (stereo not drawn) [Compound 1.431, 1-methyl-N-(tetrahydrofuran-2-ylmethyl)-N-[[4-[5-(trifluoromethyl)-1,2,4-oxadiazol-3-yl]phenyl]methyl]-cyclopropane-carboxamide]
≥ 80%: pest or weed control at 200 ppm [1] | pest or weed control at 200 ppm [2] | inhibition of growth at 20 ppm [3]

COCCCC(=O)N(Cc1ccc(-c2noc(C(F)(F)F)n2)cc1)CC1CCCO1 (stereo not drawn) [Compound 1.452, 4-methoxy-N-(tetrahydrofuran-2-ylmethyl)-N-[[4-[5-(trifluoromethyl)-1,2,4-oxadiazol-3-yl]phenyl]methyl]-butanamide]
≥ 80%: pest or weed control at 200 ppm [1] | pest or weed control at 200 ppm [2] | inhibition of growth at 20 ppm [3]

CCN(Cc1ccc(-c2noc(C(F)(F)F)n2)cc1)C(=O)N(CCOC)CCOC [Compound 3.102, 1-ethyl-3,3-bis(2-methoxyethyl)-1-[[4-[5-(trifluoromethyl)-1,2,4-oxadiazol-3-yl]phenyl]methyl]urea]
≥ 80%: pest or weed control at 200 ppm [1] | pest or weed control at 200 ppm [2] | inhibition of growth at 20 ppm [3]
